Results on six compounds are retold here after PubChem BioAssay (NCI).

Some test systems named below: CAKI-1 renal; KM12 colon; LOX IMVI melanoma; M14 melanoma; MCF7 breast; MDA-MB-231 breast; SF-268 CNS; HCC-2998 colon; HOP-92 NSCLC; SK-MEL-2 melanoma.
Holding throughout (test): growth of human tumour cells (NCI), 48 h

Structures are written as SMILES. Values after ≈ are worked out from the molar mass of the structure shown.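 1) Cells in 96-well plates. 2) Compound, 48 h, 5 concentrations. 3) Linear interpolation between surrounding doses. 4) Unreached endpoint = highest concentration. GI50 is the concentration that inhibits growth by half. TGI: total growth inhibition.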 Bounds are passed on as bounds.

With `CC(=O)c1c(C)nc(SSc2nc(C)c(C(C)=O)c(-c3ccc(Cl)cc3)c2C#N)c(C#N)c1-c1ccc(Cl)cc1`, the GI50 in the experiment with CAKI-1 renal is 62.7 µg/mL (≈ 104 µM); in the experiment on KM12 colon it was 133 µg/mL; in the experiment with LOX IMVI melanoma it was 49.2 µg/mL (≈ 81.6 µM); in the experiment with M14 melanoma, 81.5 µg/mL (≈ 135 µM); in the experiment on MCF7 breast, over 150 µg/mL; in the experiment on MDA-MB-231 breast it was 34.4 µg/mL (≈ 56.9 µM). Also, the GI50 in the experiment on SF-268 CNS was 102 µg/mL (≈ 169 µM). For the same compound, the TGI in the experiment with CAKI-1 renal was over 150 µg/mL; in the experiment with KM12 colon, over 150 µg/mL; with LOX IMVI melanoma, over 150 µg/mL; with M14 melanoma, over 150 µg/mL; in the experiment on MCF7 breast it was over 150 µg/mL; with MDA-MB-231 breast it was 103 µg/mL. Further, the TGI in the experiment with SF-268 CNS was over 150 µg/mL.

Consider `O=C(N/N=C/c1cc(Cl)cc(Cl)c1[O-])c1ccccc1O.O=C(N/N=C/c1cc(Cl)cc(Cl)c1[O-])c1ccccc1O.[Co+2]`, for which the TGI turned out to be 6.3 µM in the experiment on CAKI-1 renal; 6.63 µM in the experiment on HCC-2998 colon; 3.18 µM in the experiment with HOP-92 NSCLC; 19.1 µM in the experiment with KM12 colon; 11.8 µM in the experiment with LOX IMVI melanoma; 2.95 µM with M14 melanoma. Also, the TGI with SF-268 CNS amounted to 21.2 µM; with SK-MEL-2 melanoma, 3.74 µM. The GI50 with HOP-92 NSCLC is 0.471 µM; with KM12 colon, 0.963 µM; with SK-MEL-2 melanoma it was 0.37 µM.

On to `CC(=O)Nc1ccc(C(=O)NN2C(=O)C(Cl)/C2=C/c2ccco2)cc1` (stereo unspecified), for which the TGI in the experiment with HCC-2998 colon, with HOP-92 NSCLC, with KM12 colon, in the experiment with SF-268 CNS and in the experiment on SK-MEL-2 melanoma was over 100 µM throughout.

As to `CC(=O)OCC1OC(n2cc(F)c(=O)[nH]c2=O)C(NC(=O)OCc2ccccc2)C(OC(C)=O)C1OC(C)=O` (stereo unspecified), the TGI in the experiment on CAKI-1 renal, in the experiment with HCC-2998 colon, in the experiment on HOP-92 NSCLC, in the experiment with KM12 colon, with LOX IMVI melanoma and in the experiment with MCF7 breast was over 100 µM in each case. Further, the TGI in the experiment with SF-268 CNS and in the experiment with SK-MEL-2 melanoma was over 100 µM throughout.

For `CCP(=O)(CC)C(Cl)Cl`, the TGI in the experiment on CAKI-1 renal, in the experiment on HCC-2998 colon, in the experiment with HOP-92 NSCLC, in the experiment on LOX IMVI melanoma, with M14 melanoma and with MCF7 breast was over 100 µM in each case. Also, the TGI in the experiment on MDA-MB-231 breast and in the experiment with SK-MEL-2 melanoma was over 100 µM throughout.

On to `Nc1[nH]nc(Nc2ccc(Cl)cc2)c1P(=O)(c1ccccc1)c1ccccc1`, for which the TGI was over 100 µM in the experiment on CAKI-1 renal; 60.2 µM in the experiment with HCC-2998 colon; 70.8 µM with HOP-92 NSCLC; 37.5 µM in the experiment on KM12 colon; over 100 µM in the experiment with LOX IMVI melanoma; 54.6 µM with M14 melanoma. Also, the TGI is over 100 µM with MCF7 breast, 49.8 µM in the experiment on MDA-MB-231 breast, 33.8 µM in the experiment on SF-268 CNS and 43.1 µM in the experiment with SK-MEL-2 melanoma.
